From ChEMBL document CHEMBL1201862, “PubChem BioAssay data set” (2004)
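Dose response: 5 concentrations. Exposure: 48 h. Format: 96-well plates. Endpoint: linear interpolation; highest concentration if not reached. Abbreviation: GI50, concentration required for 50% inhibition of growth.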 Calls of active or inactive are those of the source. Rule as the data show it: active = GI50 up to about 1.1 µM and inactive = higher.

Columns and labels:
Experiment in all cases: inhibition of tumour cell growth, NCI panel, 48 h
[1] = test system: 786-0
[2] = test system: A498
[3] = test system: ACHN
[4] = test system: HCT-15
[5] = test system: IGROV-1
[6] = test system: MOLT-4
[7] = test system: Malme-3M
[8] = test system: NCI-H226
[9] = test system: NCI-H23
[10] = test system: NCI-H522
[11] = test system: RXF 393
[12] = test system: SF-539
[13] = test system: SK-MEL-28
[14] = test system: SN12C
[15] = test system: SNB-19
[16] = test system: UACC-62
[17] = test system: UO-31
[18] = test system: MCF7
[19] = test system: MDA-MB-435

Structure (SMILES) | GI50 [1] | GI50 [2] | GI50 [3] | GI50 [4] | GI50 [5] | GI50 [6] | GI50 [7] | GI50 [8] | GI50 [9] | GI50 [10] | GI50 [11] | GI50 [12] | GI50 [13] | GI50 [14] | GI50 [15] | GI50 [16] | GI50 [17] | GI50 [18] | GI50 [19]
COc1ccccc1-n1c(C)nc2ccccc2c1=O | > 100 µM (inactive) | > 100 µM (inactive) | > 100 µM (inactive) | > 100 µM | > 100 µM (inactive) | > 100 µM (inactive) | > 100 µM (inactive) | > 100 µM (inactive) | > 100 µM (inactive) | > 100 µM (inactive) | > 100 µM (inactive) | > 100 µM (inactive) | > 100 µM (inactive) | > 100 µM (inactive) | > 100 µM (inactive) | > 100 µM (inactive) | > 100 µM (inactive) | – | –
Cc1ccc(/N=C/C=C(\Nc2ccc(C)cc2)c2ccc3ccccc3c2)cc1 | 0.757 µM (active) | 10.8 µM (inactive) | 0.671 µM (active) | 0.45 µM | 0.541 µM (active) | 0.237 µM (active) | 0.238 µM (active) | 1.4 µM (inactive) | 0.585 µM (active) | 2.74 µM (inactive) | 0.521 µM (active) | 1.21 µM (inactive) | 0.488 µM (active) | – | 1.68 µM (inactive) | 0.331 µM (active) | 1.07 µM (active) | 515 nM (active) | 203 nM (active)
Cc1ccc(CC(C)N)cc1 (configuration not stated) | > 100 µM (inactive) | > 100 µM (inactive) | > 100 µM (inactive) | > 100 µM | > 100 µM (inactive) | > 100 µM (inactive) | > 100 µM (inactive) | > 100 µM (inactive) | > 100 µM (inactive) | > 100 µM (inactive) | > 100 µM (inactive) | > 100 µM (inactive) | > 100 µM (inactive) | > 100 µM (inactive) | > 100 µM (inactive) | > 100 µM (inactive) | > 100 µM (inactive) | – | –
CC(C)(c1ccc(Oc2ccc(C#N)c(C#N)c2)cc1)c1ccc(Oc2ccc(C#N)c(C#N)c2)cc1 | > 10 µM (inactive) | > 10 µM (inactive) | > 10 µM (inactive) | > 10 µM | > 10 µM (inactive) | > 10 µM (inactive) | > 10 µM (inactive) | > 10 µM (inactive) | > 10 µM (inactive) | > 10 µM (inactive) | > 10 µM (inactive) | > 10 µM (inactive) | > 10 µM (inactive) | > 10 µM (inactive) | > 10 µM (inactive) | > 10 µM (inactive) | 3.58 µM (inactive) | – | –
C=CC/N=C1\N=C(C)C(C(=O)OCC)S1 (configuration not stated) | > 100 µM (inactive) | > 100 µM (inactive) | > 100 µM (inactive) | > 100 µM | > 100 µM (inactive) | > 100 µM (inactive) | > 100 µM (inactive) | > 100 µM (inactive) | > 100 µM (inactive) | > 100 µM (inactive) | > 100 µM (inactive) | > 100 µM (inactive) | > 100 µM (inactive) | > 100 µM (inactive) | > 100 µM (inactive) | > 100 µM (inactive) | > 100 µM (inactive) | – | –
CC/C(CC(=O)CCC(=O)Nc1ccccc1[N+](=O)[O-])=N/NC(=O)C[n+]1ccccc1 | > 100 µM (inactive) | > 100 µM (inactive) | > 100 µM (inactive) | > 100 µM | > 100 µM (inactive) | > 100 µM (inactive) | > 100 µM (inactive) | > 100 µM (inactive) | > 100 µM (inactive) | > 100 µM (inactive) | > 100 µM (inactive) | > 100 µM (inactive) | > 100 µM (inactive) | > 100 µM (inactive) | > 100 µM (inactive) | > 100 µM (inactive) | > 100 µM (inactive) | – | –
CN(Cc1ccccc1)C1(N(C)Cc2ccccc2)CC1 | > 100 µM (inactive) | > 100 µM (inactive) | > 100 µM (inactive) | > 100 µM | > 100 µM (inactive) | > 100 µM (inactive) | > 100 µM (inactive) | > 100 µM (inactive) | > 100 µM (inactive) | > 100 µM (inactive) | > 100 µM (inactive) | > 100 µM (inactive) | > 100 µM (inactive) | > 100 µM (inactive) | > 100 µM (inactive) | > 100 µM (inactive) | > 100 µM (inactive) | – | –
COC12C=CC(CC1)c1c(O)ccc(O)c12 (configuration not stated) | > 64.9 µM (inactive) | > 100 µM (inactive) | 39.3 µM (inactive) | 29.7 µM | > 100 µM (inactive) | 22.8 µM (inactive) | > 51.5 µM (inactive) | 39.1 µM (inactive) | > 86.1 µM (inactive) | 16.8 µM (inactive) | > 79.6 µM (inactive) | > 100 µM (inactive) | 87.5 µM (inactive) | 59.3 µM (inactive) | > 70.6 µM (inactive) | 27.3 µM (inactive) | > 80.7 µM (inactive) | – | –
